Results published in patent US20090311344A1, “Dosing Regimen” (priority 2008, published 2009).
Entries after “also recorded” stand apart in the source; their conditions may differ.

Legend:
[1] = Single dose study in healthy subjects: safety, tolerability, antibodies; format: in vivo, human
Method: (§1) See, e.g., U.S. patent application Ser. No. 11/354,065, filed Feb. 14, 2006, the entire contents of which are incorporated herein by reference.
Single i.v. doses of the TPO mimetic peptide compound up to and including 3 μg/kg were well-tolerated in healthy male subjects, with no apparent drug-related effects on adverse events, or cardiovascular or laboratory safety parameters (excluding platelet counts). Antibodies against the TPO mimetic peptide compound were not apparent in any post dose samples.

[2] = tested on: platelet count; experiment: Single dose study in healthy subjects: platelets, megakaryocyte ploidy, progenitor cells; format: in vivo, human
Description: as §1

[3] = toxicity / side effects in HT-29 tumor-bearing mice

Substance: Methoxypolyethyleneglycol20000-propionyl-L-Isoleucyl-L-Glutamyl-Glycyl-L-Prolyl-L-Threonyl-L-Leucyl-L-Arginyl-L-Glutaminyl-L-2-Naphthylalanyl-L-Leucyl-L-Alanyl-L-Alanyl-L-Arginyl-Sarcosyl-Ne-(methoxypolyethyleneglycol20000-propionyl-L-Isoleucyl-L-Glutamyl-Glycyl-L-Prolyl-L-Threonyl-L-Leucyl-L-Arginyl-L-Glutaminyl-L-2-Naphthylalanyl-L-Leucyl-L-Alanyl-L-Alanyl-L-Arginyl-Sarcosyl-)-Lysinamide [TPO mimetic peptide compound]
- safety and tolerability ([1]; healthy male subjects, single i.v. doses 0.375 to 3 μg/kg): safe and generally well tolerated
- antibodies against the TPO mimetic peptide compound ([1]; healthy subjects, post dose samples): not apparent; also recorded: no evidence of antibody formation
- mean platelet count ([2]; healthy male subjects, single i.v. administration): dose-dependently increased; also recorded: dose dependent, nonlinear increase
- elevated platelet counts, increase from baseline ([2]; healthy subjects, 3.0 μg/kg dose): ≥ 3 fold
- mean number of CD62P+ platelets ([2]; healthy subjects, 2 highest doses): appeared to increase
- mean megakaryocyte ploidy ([2]; healthy subjects, doses of 1.5 μg/kg and above): increased compared with placebo
- mean numbers of hematopoietic progenitor cells (BFU-E and peripheral CD34+ cells) ([2]; healthy subjects, highest dose): increased compared with placebo; also recorded: increased mean numbers of hematopoietic progenitor cells
- large spleens in necropsied animals ([3]; Group 3): ⅖
- mean BW losses ([3]; monotherapy (Group 3)): no mean BW losses
- tolerability ([3]; monotherapy (Group 3), 0.2 mg/kg i.v. Days 2, 13): well tolerated
